PubChem BioAssay (NCI)
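Dose response: 5 concentrations. Exposure: 48 h. Format: 96-well plates. Endpoint: linear interpolation; highest concentration if not reached. The concentration for 50% growth inhibition is given as GI50. Definition used: TGI = concentration required for complete inhibition of growth.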

Tests used:
Assay in all cases: NCI anticancer screen, dose series, 48 h
[1] = test system: OVCAR-4 ovarian
[2] = test system: RPMI-8226 leukemia
[3] = test system: SK-MEL-5 melanoma
[4] = test system: SR leukemia
[5] = test system: A549 NSCLC
[6] = test system: MOLT-4 leukemia
[7] = test system: HCT-15 colon
[8] = test system: RXF 393 renal
[9] = test system: SF-268 CNS
[10] = test system: UACC-62 melanoma
[11] = test system: MDA-MB-231 breast
[12] = test system: MDA-MB-435
[13] = test system: SK-MEL-28 melanoma
[14] = test system: HL-60(TB) leukemia
[15] = test system: K-562 leukemia
[16] = test system: PC-3 prostate
[17] = test system: LOX IMVI melanoma
[18] = test system: KM12 colon
[19] = test system: SF-539 CNS
[20] = test system: IGROV1 ovarian
[21] = test system: SNB-75 CNS
[22] = test system: DU-145 prostate
[23] = test system: CCRF-CEM leukemia
[24] = test system: U251 CNS
[25] = test system: NCI/ADR-RES ovarian
[26] = test system: OVCAR-5 ovarian
[27] = test system: A498 renal
[28] = test system: SK-MEL-2 melanoma
[29] = test system: TK-10 renal
[30] = test system: HOP-92 NSCLC
[31] = test system: MCF7 breast
[32] = test system: SNB-19 CNS
[33] = test system: SK-OV-3 ovarian
[34] = test system: M14 melanoma
[35] = test system: NCI-H23 lung
[36] = test system: T-47D breast
[37] = test system: NCI-H522 lung
[38] = test system: SF-295 CNS
[39] = test system: HT29 colon
[40] = test system: NCI-H226 lung
[41] = test system: UACC-257 melanoma
[42] = test system: HCC-2998 colon
[43] = test system: SW-620 colon
[44] = test system: MALME-3M melanoma
[45] = test system: OVCAR-3 ovarian
[46] = test system: HS 578T breast
[47] = test system: CAKI-1 renal
[48] = test system: SN12C renal
[49] = test system: COLO 205 colon
[50] = test system: ACHN renal
[51] = test system: EKVX NSCLC
[52] = test system: OVCAR-8 ovarian
[53] = test system: UO-31 renal
[54] = test system: HOP-62 NSCLC
[55] = test system: BT-549 breast
[56] = test system: HCT-116 colon
[57] = test system: NCI-H460 lung
[58] = test system: 786-0 renal

SMILES: C=C(C)[C@@H]1CC[C@]2(C)[C@H](CC[C@@H]3[C@@H]([C@@](C)(O)CCC=C(C)C)CC[C@]32C)[C@@]1(C)CCC(=O)N1CCN(C)CC1
- GI50 [1]: 10.1 µM
- TGI [1]: 23.4 µM
- GI50 [2]: 5.99 µM
- TGI [2]: 28.6 µM
- GI50 [3]: 6.97 µM
- TGI [3]: 19.6 µM
- GI50 [4]: 3.39 µM
- TGI [4]: 21.6 µM
- GI50 [5]: 9.65 µM
- TGI [5]: 24.2 µM
- GI50 [6]: 6.39 µM
- TGI [6]: 29.3 µM
- GI50 [7]: 6.04 µM
- TGI [7]: 18.1 µM
- GI50 [8]: 5.25 µM
- TGI [8]: 16.4 µM
- GI50 [9]: 13.1 µM
- TGI [9]: 30.1 µM
- GI50 [10]: 11.2 µM
- TGI [10]: 24.1 µM
- GI50 [11]: 13.4 µM
- TGI [11]: 26.7 µM
- GI50 [12]: 12.2 µM
- TGI [12]: 26.5 µM
- GI50 [13]: 12.9 µM
- TGI [13]: 25.8 µM
- GI50 [14]: 4.26 µM
- TGI [14]: 19.2 µM
- GI50 [15]: 4.26 µM
- TGI [15]: 24.1 µM
- GI50 [16]: 3.77 µM
- TGI [16]: 15.8 µM
- GI50 [17]: 13.4 µM
- TGI [17]: 26.5 µM
- GI50 [18]: 10.5 µM
- TGI [18]: 23.6 µM
- GI50 [19]: 9.44 µM
- TGI [19]: 21.7 µM
- GI50 [20]: 12.7 µM
- TGI [20]: 27.4 µM
- GI50 [21]: 11.3 µM
- TGI [21]: 25 µM
- GI50 [22]: 11.9 µM
- TGI [22]: 24.6 µM
- GI50 [23]: 11.6 µM
- TGI [23]: 37.6 µM
- GI50 [24]: 10.1 µM
- TGI [24]: 22 µM
- GI50 [25]: 12.1 µM
- TGI [25]: 25 µM
- GI50 [26]: 14 µM
- TGI [26]: 27.4 µM
- GI50 [27]: 13.2 µM
- TGI [27]: 26.6 µM
- GI50 [28]: 14.8 µM
- TGI [28]: 29.8 µM
- GI50 [29]: 17.7 µM
- TGI [29]: 32.2 µM
- GI50 [30]: 6.4 µM
- TGI [30]: 20.7 µM
- GI50 [31]: 7 µM
- TGI [31]: 21.1 µM
- GI50 [32]: 15 µM
- TGI [32]: 28.4 µM
- GI50 [33]: 12.9 µM
- TGI [33]: 26.4 µM
- GI50 [34]: 10.1 µM
- TGI [34]: 24.2 µM
- GI50 [35]: 13.7 µM
- TGI [35]: 27.5 µM
- GI50 [36]: 4.72 µM
- TGI [36]: 19.6 µM
- GI50 [37]: 13.4 µM
- TGI [37]: 28.2 µM
- GI50 [38]: 13.4 µM
- TGI [38]: 26.2 µM
- GI50 [39]: 4.14 µM
- TGI [39]: 16.2 µM
- GI50 [40]: 12.9 µM
- TGI [40]: 31.7 µM
- GI50 [41]: 11.8 µM
- TGI [41]: 25.6 µM
- GI50 [42]: 13.5 µM
- TGI [42]: 26.3 µM
- GI50 [43]: 13 µM
- TGI [43]: 28.5 µM
- GI50 [44]: 10.7 µM
- TGI [44]: 23.6 µM
- GI50 [45]: 10.4 µM
- TGI [45]: 22.5 µM
- GI50 [46]: 13.1 µM
- TGI [46]: 36.5 µM
- GI50 [47]: 12.4 µM
- TGI [47]: 24.9 µM
- GI50 [48]: 11.4 µM
- TGI [48]: 24.2 µM
- GI50 [49]: 12.3 µM
- TGI [49]: 26.8 µM
- GI50 [50]: 13.6 µM
- TGI [50]: 26.5 µM
- GI50 [51]: 11.6 µM
- TGI [51]: 23.9 µM
- GI50 [52]: 14.1 µM
- TGI [52]: 30.5 µM
- GI50 [53]: 11.3 µM
- TGI [53]: 23.3 µM
- GI50 [54]: 12.8 µM
- TGI [54]: 26.1 µM
- GI50 [55]: 11.2 µM
- TGI [55]: 24.1 µM
- GI50 [56]: 4.43 µM
- TGI [56]: 16.9 µM
- GI50 [57]: 16.9 µM
- TGI [57]: 32.9 µM
- GI50 [58]: 10.3 µM
- TGI [58]: 23.8 µM
